Data reported in US5683981A, “Cyclic bridged analogs of α-MSH and methods thereof” (Competitive Technologies, Inc., priority 1995, dated 1997).
Non-standard residues stand in square brackets, D forms with d. Residues, ends and D or L forms follow the SMILES beside them.

Experiments:
frog skin = assay: Frog skin assay: melanosome dispersion (skin darkening) in vitro; format: cell-based, Rana pipiens; conditions: for Creeping potency (percentage skin darkening at a particular dose increases with time): frog skin bioassay; for Potencies Relative to α-MSH, Frog Skin Assay: tested in the range 10^-12 to 10^-9 M, compared to half-maximal effective dose of α-MSH (10^-10 M)
Protocol: (§1) The peptides described above were examined to determine the relative potencies of the peptides in respect to the stimulation of a melanosome dispersion in vitro using the frog (Rana pipiens) and the lizard (Anolis carolinensis) [see Science 213:1025 (1981)]. These assays are recognized by the scientific communitty to be a fairly accurate representation of results that would be expected when the test substances are administered to vertebrates in vivo; if activity is found when the test substances are tested in the frog skin assay and the lizard skin assay, similar activity would be expected if the test substances are administered to vertebrates, i.e, darkening in the two assays would indicate that darkening would also occur in vertebrates. These assays measure the amount of light reflected from the surface of the skins in vitro. In response to melanotropic peptides, melanosomes within integumental melanocytes migrate from a perinuclear position into the dendritic processes of the pigment cells. This centrifugal organellar dispersion results in a change of color (darkening) of the skins which is measured by a Photovolt reflectometer and is expressed as the percent response compared to the initial (time zero) reflectance value. | ^a = all peptide derivatives were tested in the range of 10^-12 t | 10^-9 M concentration; compared to the halfmaximal effective dose of | aMSH in the frog skin assay (10^-10 M), or in the lizard skin assay | (10^-9 M).

lizard skin = assay: Lizard skin assay: melanosome dispersion (skin darkening) in vitro; format: cell-based, Anolis carolinensis; conditions: tested in the range 10^-12 to 10^-9 M; compared to half-maximal effective dose of α-MSH (10^-9 M)
Protocol: as §1

[1] = tested on: crude cell membranes of B-16 mouse melanoma cells; assay: Affinity of peptide to homogenized crude cell membranes (HPLC of supernatant and pellet extract); format: binding
Protocol: 0.3 μmole of peptide SHU-9002 was dissolved in 1 ml solution of homogenized crude cell membranes, obtained from about 0.6 million B-16 mouse melanoma cells, in phosphate buffer. After 5 hrs, the suspension was centrifuged at 10,000×g for 10 min. The pellet was saved and the supernatant subjected to HPLC on a C-18 column.
The pellet saved above was treated with DMSO-0.1% aq. TFA mixture (1:1), centrifuged as before and the supernatant subjected to HPLC as earlier.

| SMILES | Potencies Relative to α-MSH, Frog Skin Assay (frog skin) | Potencies Relative to α-MSH, Lizard Skin Assay (lizard skin) | further results |
| --- | --- | --- | --- |
| CCCC[C@H](NC(=O)[C@H](CO)NC(=O)[C@H](Cc1ccc(O)cc1)NC(=O)[C@H](CO)NC(C)=O)C(=O)N[C@H]1CCC(=O)N[C@@H](CCCNC(=N)N)C(=O)N[C@@H](CCCNC(=N)N)C(=O)NCCCC[C@@H](C(=O)N2CCC[C@H]2C(=O)N[C@H](C(N)=O)C(C)C)NC(=O)CNC(=O)[C@H](Cc2c[nH]c3ccccc23)NC(=O)[C@H](CCCNC(=N)N)NC(=O)[C@@H](Cc2ccccc2)NC(=O)[C@H](Cc2c[nH]cn2)NC1=O [SHU 9002] | 25 | 2 | Creeping potency (percentage skin darkening at a particular dose increases with time) (frog skin): exhibited creeping potency; Presence of peptide in supernatant after incubation with cell membranes (HPLC, C-18) ([1]; 0.3 μmole peptide in 1 ml membrane homogenate from about 0.6 million cells, phosphate buffer, 5 hrs, centrifuged 10,000×g 10 min): no evidence for the presence of the peptide SHU-9002 in the supernatant; Affinity to the cell membranes ([1]; conclusion from supernatant and pellet HPLC): marked affinity; Peptide recovered from membrane pellet (HPLC after DMSO-0.1% aq. TFA 1:1 treatment) ([1]; pellet of the 5 hrs incubation): elution pattern corresponding to the SHU-9002 was obtained |
| CCCC[C@H](NC(=O)[C@H](CO)NC(=O)[C@H](Cc1ccc(O)cc1)NC(=O)[C@H](CO)NC(C)=O)C(=O)N[C@H]1CCC(=O)N[C@@H](CCCCN)C(=O)N[C@@H](CCCCN)C(=O)NCCCC[C@@H](C(=O)N2CCC[C@H]2C(=O)N[C@H](C(N)=O)C(C)C)NC(=O)CNC(=O)[C@H](Cc2c[nH]c3ccccc23)NC(=O)[C@H](CCCNC(=N)N)NC(=O)[C@@H](Cc2ccccc2)NC(=O)[C@H](Cc2c[nH]cn2)NC1=O [SHU 9009] | 100 | 5 |  |
| CCCC[C@H](NC(=O)[C@H](CO)NC(=O)[C@H](Cc1ccc(O)cc1)NC(=O)[C@H](CO)NC(C)=O)C(=O)N[C@H]1CCC(=O)N[C@@H](CCCCN)C(=O)N[C@@H](CCCNC(=N)N)C(=O)NCCCC[C@@H](C(=O)N2CCC[C@H]2C(=O)N[C@H](C(N)=O)C(C)C)NC(=O)CNC(=O)[C@H](Cc2c[nH]c3ccccc23)NC(=O)[C@H](CCCNC(=N)N)NC(=O)[C@@H](Cc2ccccc2)NC(=O)[C@H](Cc2c[nH]cn2)NC1=O [SHU 9010] | 145 |  | Creeping potency (percentage skin darkening at a particular dose increases with time) (frog skin): exhibited creeping potency |
| CC(=O)N[C@@H](CO)C(=O)N[C@@H](Cc1ccc(O)cc1)C(=O)N[C@@H](CCCCN)C(=O)N[C@@H](CCCCN)C(=O)N[C@H]1CCC(=O)N[C@@H](CCCNC(=N)N)C(=O)N[C@@H](CCCCN)C(=O)NCCCC[C@@H](C(=O)N2CCC[C@H]2C(=O)N[C@H](C(N)=O)C(C)C)NC(=O)CNC(=O)[C@H](Cc2c[nH]c3ccccc23)NC(=O)[C@H](CCCNC(=N)N)NC(=O)[C@@H](Cc2ccccc2)NC(=O)[C@H](Cc2c[nH]cn2)NC1=O [SHU 9013] | 1 | 4 |  |
| CCCC[C@H](NC(=O)[C@H](CO)NC(=O)[C@H](Cc1ccc(O)cc1)NC(=O)[C@H](CO)NC(C)=O)C(=O)N[C@H]1CCC(=O)N[C@@H](CCCNC(=N)N)C(=O)N[C@@H](CCCCN)C(=O)NCCCC[C@@H](C(=O)N2CCC[C@H]2C(=O)N[C@H](C(N)=O)C(C)C)NC(=O)CNC(=O)[C@H](Cc2c[nH]c3ccccc23)NC(=O)[C@H](CCCNC(=N)N)NC(=O)[C@@H](Cc2ccccc2)NC(=O)[C@H](Cc2c[nH]cn2)NC1=O [SHU 9014] | 20 | 4 |  |
| CCCC[C@H](NC(C)=O)C(=O)N[C@H]1CC(=O)N[C@@H](CCCCN)C(=O)N[C@@H](CCCNC(=N)N)C(=O)NCCCC[C@@H](C(N)=O)NC(=O)[C@H](Cc2c[nH]c3ccccc23)NC(=O)[C@H](CCCNC(=N)N)NC(=O)[C@@H](Cc2ccccc2)NC(=O)[C@H](Cc2c[nH]cn2)NC1=O [SHU 9018] | 0.05 | 10 |  |
| CCCC[C@H](NC(C)=O)C(=O)N[C@H]1CC(=O)N[C@@H](CCCCN)C(=O)N[C@@H](CCCCN)C(=O)NCCCC[C@@H](C(N)=O)NC(=O)[C@H](Cc2c[nH]c3ccccc23)NC(=O)[C@H](CCCNC(=N)N)NC(=O)[C@@H](Cc2ccccc2)NC(=O)[C@H](Cc2c[nH]cn2)NC1=O [SHU 9019] |  | 12.5 |  |
| CCCC[C@H](NC(C)=O)C(=O)N[C@H]1CC(=O)N[C@@H](CCCNC(=N)N)C(=O)N[C@@H](CCCNC(=N)N)C(=O)NCCCC[C@@H](C(N)=O)NC(=O)[C@H](Cc2c[nH]c3ccccc23)NC(=O)[C@H](CCCNC(=N)N)NC(=O)[C@@H](Cc2ccccc2)NC(=O)[C@H](Cc2c[nH]cn2)NC1=O [SHU 9020] | 0.14 | 6.7 |  |
| CCCC[C@H](NC(C)=O)C(=O)N[C@H]1CC(=O)N[C@@H](CCCNC(=N)N)C(=O)N[C@@H](CCCCN)C(=O)NCCCC[C@@H](C(N)=O)NC(=O)[C@H](Cc2c[nH]c3ccccc23)NC(=O)[C@H](CCCNC(=N)N)NC(=O)[C@@H](Cc2ccccc2)NC(=O)[C@H](Cc2c[nH]cn2)NC1=O [SHU 9021] | 0.25 | 13.4 |  |
| CCCC[C@@H]1NC(=O)CC[C@H](NC(=O)[C@H](CCCC)NC(=O)[C@H](CO)NC(=O)[C@H](Cc2ccc(O)cc2)NC(=O)[C@H](CO)NC(C)=O)C(=O)N[C@@H](Cc2c[nH]cn2)C(=O)N[C@H](Cc2ccccc2)C(=O)N[C@@H](CCCNC(=N)N)C(=O)N[C@@H](Cc2c[nH]c3ccccc23)C(=O)NCC(=O)N[C@H](C(=O)N2CCC[C@H]2C(=O)N[C@H](C(N)=O)C(C)C)CCCCNC(=O)[C@H](CCCC)NC1=O [SHU 9026] | 7 |  |  |
| CC(=O)N[C@@H](CO)C(=O)N[C@@H](Cc1ccc(O)cc1)C(=O)N[C@@H](CCCCN)C(=O)N[C@@H](CCCCN)C(=O)N[C@@H](CCC(=O)O)C(=O)N[C@@H](Cc1c[nH]cn1)C(=O)N[C@H](Cc1ccccc1)C(=O)N[C@@H](CCCNC(=N)N)C(=O)N[C@@H](Cc1c[nH]c2ccccc12)C(=O)NCC(=O)N[C@@H](CCCCN)C(=O)N1CCC[C@H]1C(=O)N[C@H](C(N)=O)C(C)C [SHU 9027, Ac[Lys^3,4, DPhe^7]-α-MSH1-13NH2] (Ac-SYKKEH[dF]RWGKPV-NH2) | 0.4 |  |  |
| CCCC[C@H](NC(=O)[C@H](CO)NC(=O)[C@H](Cc1ccc(O)cc1)NC(=O)[C@H](CO)NC(C)=O)C(=O)N[C@H]1CCC(=O)NCCCC[C@@H](C(=O)N2CCC[C@H]2C(=O)N[C@H](C(N)=O)C(C)C)NC(=O)CNC(=O)[C@H](Cc2c[nH]c3ccccc23)NC(=O)[C@H](CCCNC(=N)N)NC(=O)[C@@H](Cc2ccccc2)NC(=O)[C@H](Cc2c[nH]cn2)NC1=O [SHU-9205] | 1.3 |  |  |
| CCCC[C@H](NC(=O)[C@H](CO)NC(=O)[C@H](Cc1ccc(O)cc1)NC(=O)[C@H](CO)NC(C)=O)C(=O)N[C@H]1CCC(=O)N[C@@H](CCC(=O)O)C(=O)N[C@@H](CCC(=O)O)C(=O)NCCCC[C@@H](C(=O)N2CCC[C@H]2C(=O)N[C@H](C(N)=O)C(C)C)NC(=O)CNC(=O)[C@H](Cc2c[nH]c3ccccc23)NC(=O)[C@H](CCCNC(=N)N)NC(=O)[C@@H](Cc2ccccc2)NC(=O)[C@H](Cc2c[nH]cn2)NC1=O [SHU-9207] | 1.3 |  |  |
| CCCC[C@H](NC(=O)[C@H](CO)NC(=O)[C@H](Cc1ccc(O)cc1)NC(=O)[C@H](CO)NC(C)=O)C(=O)N[C@H]1CCC(=O)N[C@@H](CO)C(=O)N[C@@H](CO)C(=O)NCCCC[C@@H](C(=O)N2CCC[C@H]2C(=O)N[C@H](C(N)=O)C(C)C)NC(=O)CNC(=O)[C@H](Cc2c[nH]c3ccccc23)NC(=O)[C@H](CCCNC(=N)N)NC(=O)[C@@H](Cc2ccccc2)NC(=O)[C@H](Cc2c[nH]cn2)NC1=O [SHU-9209] | 5 |  |  |
| CCCC[C@H](NC(=O)[C@H](CO)NC(=O)[C@H](Cc1ccc(O)cc1)NC(=O)[C@H](CO)NC(C)=O)C(=O)N[C@H]1CCC(=O)N[C@H](CCCCN)C(=O)N[C@H](CCCCN)C(=O)NCCCC[C@@H](C(=O)N2CCC[C@H]2C(=O)N[C@H](C(N)=O)C(C)C)NC(=O)CNC(=O)[C@H](Cc2c[nH]c3ccccc23)NC(=O)[C@H](CCCNC(=N)N)NC(=O)[C@@H](Cc2ccccc2)NC(=O)[C@H](Cc2c[nH]cn2)NC1=O [SHU-9210] | 3.5 |  |  |
